The text below walks through data of ChEMBL document CHEMBL1671624, “Efficacy of quinoxaline-2-carboxylate 1,4-di-N-oxide derivatives in experimental tuberculosis” (Antimicrob Agents Chemother, 2008).

Converted amounts (≈) assume the structure as drawn. A value given as a limit tells only on which side of the number the result lay.

Usually MIC stands for the lowest concentration found to suppress growth. Low values mean inhibition by little substance, high ones a need for much substance.

Common to all, as to assay type: functional
Conditions in all cases: variant bovis BCG

The subject of experiment [1] is Mycobacterium tuberculosis. In words: Antibacterial activity against Mycobacterium bovis BCG harboring moaD gene by microplate Alamar Blue assay. (In general: The colour change of resazurin is a common sign of viable cells or microbes.)
Experiment [2] relates to Mycobacterium tuberculosis. In words: Antibacterial activity against Mycobacterium bovis BCG harboring pil8 gene by microplate Alamar Blue assay.
For experiment [3], the system named is Mycobacterium tuberculosis. In words: Antibacterial activity against Mycobacterium bovis BCG harboring fgd gene by microplate Alamar Blue assay.
The subject of experiment [4] is Mycobacterium tuberculosis. In words: Antibacterial activity against Mycobacterium bovis BCG harboring moaA gene by microplate Alamar Blue assay.
Experiment [5] relates to Mycobacterium tuberculosis. In words: Antibacterial activity against wild-type Mycobacterium bovis BCG by microplate Alamar Blue assay.
Experiment [6] concerns Mycobacterium tuberculosis. In words: Antibacterial activity against Mycobacterium bovis BCG harboring fbiC gene by microplate Alamar Blue assay.

`CCOC(=O)c1c(C)[n+]([O-])c2ccc(Cl)cc2[n+]1[O-]`: the minimum inhibitory concentration (MIC) in experiment [1] was 0.55 µM (≈ 0.155 µg/mL); in experiment [2], 0.72 µM (≈ 0.204 µg/mL); in experiment [3], 0.5 µM (≈ 0.141 µg/mL); in experiment [4], 0.38 µM (≈ 0.107 µg/mL); in experiment [5], 0.5 µM (≈ 0.141 µg/mL); in experiment [6] it was 0.71 µM (≈ 0.201 µg/mL).
Take `O=C(Nc1ccc([N+](=O)[O-])cc1Cl)c1cc(Cl)ccc1O` [NICLOSAMIDE]: the minimal inhibitory concentration (MIC) in experiment [1] is 1.9 µM (≈ 0.622 µg/mL); in experiment [2] it was 1.87 µM (≈ 0.612 µg/mL); in experiment [3], 1.61 µM (≈ 0.527 µg/mL); in experiment [4] it was 1.86 µM (≈ 0.608 µg/mL); in experiment [5] it was 3.13 µM (≈ 1.02 µg/mL); in experiment [6] it was 1.57 µM (≈ 0.514 µg/mL).
Take `O=[N+]([O-])c1cn2c(n1)OC[C@@H](OCc1ccc(OC(F)(F)F)cc1)C2` [PRETOMANID]: the minimum inhibitory concentration (MIC) in experiment [1] was more than 128 µM; in experiment [2], more than 128 µM; in experiment [3], more than 128 µM; in experiment [4], more than 128 µM; in experiment [5], 0.12 µM (≈ 0.0431 µg/mL); in experiment [6] it was more than 128 µM.
